In article PMC8286840, “Identifying SARS-CoV-2 antiviral compounds by screening for small molecule inhibitors of Nsp3 papain-like protease” (Biochemical Journal, 2021):
Counter-ions that a name gives are not always drawn. Like-named read-outs stand apart in the source and are kept apart here.

Key:
[1] = biological target: T1, SARS-CoV-2 PLpro (nsp3 1564–1878) (Severe acute respiratory syndrome coronavirus 2, UniProt P0DTD1); test: biochemical; design: FRET-quenched peptide (Pro3) cleavage by PLpro, 10 min pre-incubation, slope over 20 min, normalised to no-compound control; conditions: high concentration screen, read-out: % of control remaining
[2] = biological target: T1, SARS-CoV-2 PLpro (nsp3 1564–1878); test: biochemical; design: FRET-quenched peptide (Pro3) cleavage by PLpro, 10 min pre-incubation, slope over 20 min, normalised to no-compound control; conditions: low concentration screen, read-out: % of control remaining

Compound: Clc1ccc(COC(Cn2ccnc2)c2ccc(Cl)cc2Cl)c(Cl)c1 (stereo not drawn) [Miconazole]
- remaining activity at 3.75 µM ([1]; Well no.=1965): 92.2%
- remaining activity at 1.25 µM ([2]; Well no.=1965): 86.9%

Compound: Nc1nc2c(cnn2CCc2ccccc2)c2nc(-c3ccco3)nn12 [SCH 58261]
- remaining activity at 3.75 µM ([1]; Well no.=7907): 99.3%
- remaining activity at 3.75 µM ([1]; Well no.=8309): 97.1%
- remaining activity at 1.25 µM ([2]; Well no.=7907): 95.3%
- remaining activity at 1.25 µM ([2]; Well no.=8309): 98.9%

Compound: CCCCCCN(CCCCCC)C(=O)Cc1c(-c2ccc(F)cc2)[nH]c2ccccc12 [N,N-Dihexyl-2-(4-fluorophenyl)indole-3-acetamide]
- remaining activity at 3.75 µM ([1]; Well no.=632): 96.6%
- remaining activity at 1.25 µM ([2]; Well no.=632): 99.3%

Compound: CC[C@H](C)C(=O)O[C@H]1C[C@H](O)C=C2C=C[C@H](C)[C@H](CC[C@@H](O)C[C@@H](O)CC(=O)O)[C@H]21 [Pravastatin sodium]
- remaining activity at 3.75 µM ([1]; Well no.=4889): 96.9%
- remaining activity at 1.25 µM ([2]; Well no.=4889): 96.4%

Compound: N=C(N)SCCc1c[nH]cn1 [Imetit dihydrobromide]
- remaining activity at 3.75 µM ([1]; Well no.=779): 94.6%
- remaining activity at 1.25 µM ([2]; Well no.=779): 94.3%

Compound: CCCCC[C@H](O)/C=C/[C@H]1OC(=O)C[C@H](O)[C@@H]1C/C=C\CCCC(=O)O [11-Dehydro-thromboxane B2]
- remaining activity at 3.75 µM ([1]; Well no.=4288): 99.7%
- remaining activity at 1.25 µM ([2]; Well no.=4288): 103%

Compound: CC(C)CN(C)c1nc(N)c(C(=O)N=C(N)N)nc1Cl [5-(N-Methyl-N-isobutyl)amiloride]
- remaining activity at 3.75 µM ([1]; Well no.=209): 100%
- remaining activity at 1.25 µM ([2]; Well no.=209): 99.9%

Compound: CCOC(=O)C1=C(C)NC(=S)NC1c1cccc(O)c1 (stereo not drawn) [Monastrol]
- remaining activity at 3.75 µM ([1]; Well no.=891): 106%
- remaining activity at 1.25 µM ([2]; Well no.=891): 106%

Compound: COc1ccc(C(=O)c2c(C)n(CCN3CCOCC3)c3ccccc23)cc1 [Pravadoline]
- remaining activity at 3.75 µM ([1]; Well no.=1805): 97.7%
- remaining activity at 1.25 µM ([2]; Well no.=1805): 97.2%

Compound: O=C(NCCCN1CCOCC1)c1cnn2c(-c3ccccc3)cc(-c3ccccc3)nc12 [Reversan]
- remaining activity at 3.75 µM ([1]; Well no.=5656): 98.2%
- remaining activity at 1.25 µM ([2]; Well no.=5656): 96.9%

Compound: O=C1/C(=C/c2ccc(O)c(O)c2)Oc2c1ccc(O[C@@H]1O[C@H](CO)[C@@H](O)[C@H](O)[C@H]1O)c2O [Maritimein]
- remaining activity at 3.75 µM ([1]; Well no.=3339): 97.6%
- remaining activity at 1.25 µM ([2]; Well no.=3339): 91.1%

Compound: CCCCCCCCCCCCCCCCCCCCCCCC(=O)O [Tetracosanoic acid]
- remaining activity at 3.75 µM ([1]; Well no.=4502): 94.2%
- remaining activity at 1.25 µM ([2]; Well no.=4502): 92.1%

Compound: COc1ccccc1N1CCN(CC(O)COc2cccc3ccccc23)CC1 (stereo not drawn) [Naftopidil]
- remaining activity at 3.75 µM ([1]; Well no.=7523): 97.2%
- remaining activity at 1.25 µM ([2]; Well no.=7523): 101%

Compound: CCc1cccc2c3c([nH]c12)C(CC)(CC(=O)O)OCC3 (stereo not drawn) [Etodolac]
- remaining activity at 3.75 µM ([1]; Well no.=740): 97.9%
- remaining activity at 1.25 µM ([2]; Well no.=740): 95.3%

Compound: NCCc1ccc(O)c(O)c1 [Dopamine (hydrochloride)]
- remaining activity at 3.75 µM ([1]; Well no.=6268): 96.3%
- remaining activity at 1.25 µM ([2]; Well no.=6268): 96.9%

Compound: O=C1NC(=O)c2c1c(-c1ccccc1Cl)cc1[nH]c3ccc(O)cc3c21 [Wee1 Inhibitor]
- remaining activity at 3.75 µM ([1]; Well no.=2683): 97.7%
- remaining activity at 1.25 µM ([2]; Well no.=2683): 97.3%

Compound: COc1cnc(NS(=O)(=O)c2ccc(N)cc2)nc1 [Sulfameter]
- remaining activity at 3.75 µM ([1]; Well no.=7406): 100%
- remaining activity at 3.75 µM ([1]; Well no.=8236): 88.3%
- remaining activity at 1.25 µM ([2]; Well no.=7406): 98.3%
- remaining activity at 1.25 µM ([2]; Well no.=8236): 91.9%

Compound: c1ccc2c(N3CCNCC3)cccc2c1 [1-(1-Naphthyl)piperazine hydrochloride]
- remaining activity at 3.75 µM ([1]; Well no.=1467): 99.2%
- remaining activity at 1.25 µM ([2]; Well no.=1467): 99.5%

Compound: CSC[C@H]1O[C@@H](n2cnc3c(N)ncnc32)[C@H](O)[C@@H]1O [5'-Methylthioadenosine]
- remaining activity at 3.75 µM ([1]; Well no.=6295): 103%
- remaining activity at 3.75 µM ([1]; Well no.=7812): 106%
- remaining activity at 1.25 µM ([2]; Well no.=6295): 102%
- remaining activity at 1.25 µM ([2]; Well no.=7812): 105%

Compound: C/C=C/C[C@@H](C)C(=O)[C@H]1C(=O)N[C@@H](C(C)C)C(=O)N(C)CC(=O)N(C)[C@@H](CC(C)C)C(=O)N[C@@H](C(C)C)C(=O)N(C)[C@@H](CC(C)C)C(=O)N[C@@H](C)C(=O)N[C@H](C)C(=O)N(C)[C@@H](CC(C)C)C(=O)N(C)[C@@H](CC(C)C)C(=O)N(C)[C@@H](C(C)C)C(=O)N1C [Valspodar]
- remaining activity at 3.75 µM ([1]; Well no.=8226): 94.7%
- remaining activity at 1.25 µM ([2]; Well no.=8226): 94.7%

Compound: C[C@@H]([C@@H](O)c1ccc(O)cc1)N1CCC(O)(c2ccccc2)CC1 [CP-101606 mesylate]
- remaining activity at 3.75 µM ([1]; Well no.=5955): 98.9%
- remaining activity at 1.25 µM ([2]; Well no.=5955): 98.1%

Compound: N=C(N)NCCCCN [Agmatine sulfate]
- remaining activity at 3.75 µM ([1]; Well no.=261): 96.2%
- remaining activity at 1.25 µM ([2]; Well no.=261): 93.6%

Compound: Cn1c(=O)c2[nH]c(C3CCCC3)nc2n(C)c1=O [8-Cyclopentyl-1,3-dimethylxanthine]
- remaining activity at 3.75 µM ([1]; Well no.=723): 101%
- remaining activity at 1.25 µM ([2]; Well no.=723): 98.4%

Compound: C=CCCCCCCCCC(=O)O [10-Undecenoic acid]
- remaining activity at 3.75 µM ([1]; Well no.=4254): 91.9%
- remaining activity at 1.25 µM ([2]; Well no.=4254): 99%

Compound: Nc1ncnc2c1ncn2[C@@H]1O[C@H](CO)C[C@H]1O [Cordycepin]
- remaining activity at 3.75 µM ([1]; Well no.=7860): 95.9%
- remaining activity at 1.25 µM ([2]; Well no.=7860): 101%

Compound: Oc1cc(O)c2c(c1)O[C@H](c1ccc(O)c(O)c1)[C@@H](O)C2 [(+)-Catechin Hydrate]
- remaining activity at 3.75 µM ([1]; Well no.=283): 99.7%
- remaining activity at 1.25 µM ([2]; Well no.=283): 98%

Compound: N[C@H](C(=O)O)[C@@H]1CC(Cl)=NO1 [Acivicin]
- remaining activity at 3.75 µM ([1]; Well no.=3483): 97.4%
- remaining activity at 1.25 µM ([2]; Well no.=3483): 96.9%

Compound: N[C@H](C(=O)O)[C@H](O)C(=O)O (racemic) [DL-threo-beta-hydroxyaspartic acid]
- remaining activity at 3.75 µM ([1]; Well no.=418): 95.6%
- remaining activity at 1.25 µM ([2]; Well no.=418): 96.9%

Compound: O=c1cc(-c2ccc(O)c(O)c2)oc2cc(O)c([C@@H]3O[C@H](CO)[C@@H](O)[C@H](O)[C@H]3O)c(O)c12 [Homoorientin]
- remaining activity at 3.75 µM ([1]; Well no.=3291): 100%
- remaining activity at 1.25 µM ([2]; Well no.=3291): 95.6%

Compound: O=C1CC[C@@]2(O)[C@H]3Cc4ccc(O)c5c4[C@@]2(CCN3CC2CC2)[C@H]1O5 [Naltrexone hydrochloride]
- remaining activity at 3.75 µM ([1]; Well no.=997): 100%
- remaining activity at 1.25 µM ([2]; Well no.=997): 97.6%

Compound: O=C1CN2Cc3c(ccc(Cl)c3Cl)N=C2N1 [Anagrelide HCl]
- remaining activity at 3.75 µM ([1]; Well no.=5022): 99%
- remaining activity at 1.25 µM ([2]; Well no.=5022): 93.8%

Compound: CC[C@H]1OC(=O)C[C@@H](O)[C@H](C)[C@@H](O[C@@H]2O[C@H](C)[C@@H](O[C@H]3C[C@@](C)(O)[C@@H](O)[C@H](C)O3)[C@H](N(C)C)[C@H]2O)[C@@H](CC=O)C[C@@H](C)C(=O)/C=C/C(C)=C/[C@@H]1CO[C@@H]1O[C@H](C)[C@@H](O)[C@@H](OC)[C@H]1OC [Tylosin]
- remaining activity at 3.75 µM ([1]; Well no.=2010): 97.8%
- remaining activity at 1.25 µM ([2]; Well no.=2010): 96.7%

Compound: CC(=O)O/N=C1/C(c2c(O)[nH]c3cc(Br)ccc23)=Nc2ccccc21 [GSK-3 Inhibitor X]
- remaining activity at 3.75 µM ([1]; Well no.=2468): 105%
- remaining activity at 1.25 µM ([2]; Well no.=2468): 101%
